Measured values taken from US11072588B2, “Barbituric acid derivatives comprising cationic and lipophilic groups” (UNIVERSITETET I TROMSØ—NORGES ARKTISKE UNIVERSITET, priority 2017, dated 2021).
Converted amounts (≈) assume the structure as drawn.

Columns and labels:
S. epidermidis = test: Anti-biofilm activity (inhibition of biofilm formation); format: cell-based; conditions: Staphylococcus epidermidis, read-out: Anti-biofilm IC50
K. pneumoniae 50625602 = test: MIC, multi-resistant clinical isolate; format: cell-based, Klebsiella pneumoniae
Method: (§1) Working solutions of the test derivatives were prepared with up to 100% DMSO and stored at −20° C. If necessary, the solutions were heated to 40-80° C. before testing to facilitate complete dissolution. Double-distilled water was used in all dilutions prepared. […] A microdilution susceptibility test was used for MIC determination according to Clinical and Laboratory Standards Institute, “Methods for Dilution Antimicrobial Sisceptibility Tests for Bacteria That Graw Aerobically”, Approved Standard M07-A9, edition 2012, with modifications as described by Igumnova et al (Bioorg Med Chem, 2016, 24 (22), 5884-5894).
(§2) Briefly, the bacterial inoculum was adjusted to approximately 2.5-3×10^4 cells/mL in Mueller-Hinton broth (MHB, Difco Laboratories, USA), and incubated in a ratio of 1:1 with test derivatives in polystyrene 96-well flat-bottom microplates (NUNC, Roskilde, Denmark). Positive growth control (without test derivatives) and negative control (without bacteria) were included. The reference antibiotic was oxytetracycline hydrochloride (Sigma Aldrich, Saint Louis, Mo., USA). The microplates were incubated in an EnVision microplate reader (Perkin-Elmer, Turku, Finland) placed in an incubator set to 35° C. for 48 h. The MIC value was defined as the lowest concentration of derivative resulting in no bacterial growth as determined by OD600 measurement. All derivatives were tested in three parallels.
(§3) The MIC was determined as explained above with some exceptions; working solutions of test derivatives were prepared from concentrated DMSO stocks stored at room temperature, the density of the bacterial inoculum was increased 40× to 1-1.2×10^6 cells/mL, enterococci were incubated in Brain Heart Infusion broth (BHIB, Difco Laboratories, USA), the microplates were incubated for 24 h, and the derivatives were tested in four parallels.

K. pneumoniae 50531633 = test: MIC, multi-resistant clinical isolate; format: cell-based, Klebsiella pneumoniae; conditions: K. pneumoniae 50531633, resistant to colistin
Method: as §1, §2, §3

K. pneumoniae K66-45 = test: MIC, multi-resistant clinical isolate; format: cell-based, Klebsiella pneumoniae
Method: as §1, §2, §3

K. pneumoniae 50667959 = test: MIC, multi-resistant clinical isolate; format: cell-based, Klebsiella pneumoniae
Method: as §1, §2, §3

[1] = test system: Escherichia coli ATCC 25922; test: MIC assay, antibiotic susceptible reference strain; format: cell-based; conditions: Escherichia coli, ATCC25922, read-out: Antimicrobial activity (MIC) E. c
Outline: (§4)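 Broth microdilution followed CLSI M07-A9 with modifications: inoculum ~2.5-3×10^4 cells/mL in Mueller-Hinton broth, mixed 1:1 with test derivative, incubated 48 h at 35 °C. MIC was the lowest concentration giving no growth by OD600, tested in three parallels, with oxytetracycline as reference antibiotic.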

[2] = test system: Staphylococcus aureus ATCC 9144; test: MIC assay, antibiotic susceptible reference strain; format: cell-based; conditions: Staphylococcus aureus, ATCC9144, read-out: Antimicrobial activity (MIC) S. a
Outline: as §4

[3] = test system: Pseudomonas aeruginosa PA01, DSM 19880 (ATCC 15692); test: MIC assay, antibiotic susceptible reference strain; format: cell-based; conditions: Pseudomonas aeruginosa, read-out: Antimicrobial activity (MIC) P. a
Outline: as §4

[4] = test system: Corynebacterium glutamicum ATCC 13032; test: MIC assay, antibiotic susceptible reference strain; format: cell-based; conditions: Corynebacterium glutamicum, ATCC13032, read-out: Antimicrobial activity (MIC) C. g
Outline: as §4

E. coli 50857972 = test: MIC, multi-resistant clinical isolate; format: cell-based, Escherichia coli
Method: as §1, §2, §3

E. coli 50579417 = test: MIC, multi-resistant clinical isolate; format: cell-based, Escherichia coli
Method: as §1, §2, §3

E. coli 50739822 = test: MIC, multi-resistant clinical isolate; format: cell-based, Escherichia coli
Method: as §1, §2, §3

E. coli 50639799 = test: MIC, multi-resistant clinical isolate; format: cell-based, Escherichia coli
Method: as §1, §2, §3

E. coli 50676002 = test: MIC, multi-resistant clinical isolate; format: cell-based, Escherichia coli
Method: as §1, §2, §3

S. aureus NCTC 10442 = test: MIC, multi-resistant clinical isolate; format: cell-based, Staphylococcus aureus
Method: as §1, §2, §3

S. aureus IHT 99040 = test: MIC, multi-resistant clinical isolate; format: cell-based, Staphylococcus aureus
Method: as §1, §2, §3

S. aureus strain WIS = test: MIC, multi-resistant clinical isolate; format: cell-based, Staphylococcus aureus
Method: as §1, §2, §3

S. aureus strain 85/2082 = test: MIC, multi-resistant clinical isolate; format: cell-based, Staphylococcus aureus
Method: as §1, §2, §3

S. aureus N315 = test: MIC, multi-resistant clinical isolate; format: cell-based, Staphylococcus aureus
Method: as §1, §2, §3

P. aeruginosa K44-24 = test: MIC, multi-resistant clinical isolate; format: cell-based, Pseudomonas aeruginosa
Method: as §1, §2, §3

P. aeruginosa 50692520 = test: MIC, multi-resistant clinical isolate; format: cell-based, Pseudomonas aeruginosa
Method: as §1, §2, §3

P. aeruginosa K34-73 = test: MIC, multi-resistant clinical isolate; format: cell-based, Pseudomonas aeruginosa
Method: as §1, §2, §3

P. aeruginosa K34-7 = test: MIC, multi-resistant clinical isolate; format: cell-based, Pseudomonas aeruginosa
Method: as §1, §2, §3

P. aeruginosa 50692172 = test: MIC, multi-resistant clinical isolate; format: cell-based, Pseudomonas aeruginosa
Method: as §1, §2, §3

[5] = Klebsiella pneumoniae, read-out: Antimicrobial activity (MIC)
[6] = Escherichia coli, read-out: Antimicrobial activity (MIC)
[7] = Pseudomonas aeruginosa, read-out: Antimicrobial activity (MIC)

With NCCCCN1C(=O)N(CCCCN)C(=O)C(Cc2ccc(F)c3ccccc23)(Cc2ccc(F)c3ccccc23)C1=O [7(v), 1,3-bis(4-aminobutyl)-5,5-bis((4-fluoronaphtalen-1-yl)methyl)pyrimidin-2,4,6(1H,3H,5H)-trione] the IC50 (S. epidermidis) was 4 µg/mL (≈ 6.82 µM), the MIC (K. pneumoniae 50625602; [5]) was 32 µg/mL (≈ 54.5 µM) and the “selectivity index (EC50/MIC)” value (K. pneumoniae 50625602; RBC EC50 / MIC) was “(5)”. For the same compound, the MIC (K. pneumoniae 50531633; Klebsiella pneumoniae, 24 h, read-out: Antimicrobial activity (MIC)) was 16 µg/mL (≈ 27.3 µM), the “selectivity index (EC50/MIC)” value (K. pneumoniae 50531633; RBC EC50 / MIC) was “(10)” and the MIC (K. pneumoniae K66-45; Klebsiella pneumoniae, K6645, read-out: Antimicrobial activity (MIC)) was 32 µg/mL (≈ 54.5 µM). The “selectivity index (EC50/MIC)” value (K. pneumoniae K66-45; RBC EC50 / MIC, K. pneumoniae K66-45) was “(5)”, the MIC (K. pneumoniae 50667959; [5]) was 32 µg/mL (≈ 54.5 µM) and the “selectivity index (EC50/MIC)” value (K. pneumoniae 50667959; RBC EC50 / MIC) was “(5)”. The MIC [1] was 16 µg/mL (≈ 27.3 µM), the MIC [2] was 4 µg/mL (≈ 6.82 µM) and the MIC [3] was 8 µg/mL (≈ 13.6 µM). For the same compound, the MIC [4] was 1 µg/mL (≈ 1.7 µM), the MIC (E. coli 50857972; [6]) was 16 µg/mL (≈ 27.3 µM) and the “selectivity index (EC50/MIC)” value (E. coli 50857972; RBC EC50 / MIC) was “(10)”. For the same compound, the MIC (E. coli 50579417; [6]) was 16 µg/mL (≈ 27.3 µM), the “selectivity index (EC50/MIC)” value (E. coli 50579417; RBC EC50 / MIC) was “(10)” and the MIC (E. coli 50739822; [6]) was 16 µg/mL (≈ 27.3 µM). For the same compound, the “selectivity index (EC50/MIC)” value (E. coli 50739822; RBC EC50 / MIC) was “(10)”, the MIC (E. coli 50639799; [6]) was 16 µg/mL (≈ 27.3 µM) and the “selectivity index (EC50/MIC)” value (E. coli 50639799; RBC EC50 / MIC) was “(10)”. For the same compound, the MIC (E. coli 50676002; Escherichia coli, 50676002, read-out: Antimicrobial activity (MIC)) was 16 µg/mL (≈ 27.3 µM), the “selectivity index (EC50/MIC)” value (E. coli 50676002; RBC EC50 / MIC, E. coli 50676002) was “(10)” and the “selectivity index (EC50/MIC)” value (S. aureus NCTC 10442; RBC EC50 / MIC, S. aureus NCTC 10442) was “(20)”. The MIC (S. aureus NCTC 10442; Staphylococcus aureus, NCTC10442, read-out: Antimicrobial activity (MIC)) was 8 µg/mL (≈ 13.6 µM), the “selectivity index (EC50/MIC)” value (S. aureus IHT 99040; RBC EC50 / MIC) was “(20)” and the MIC (S. aureus IHT 99040; Staphylococcus aureus, IHT99040, read-out: Antimicrobial activity (MIC)) was 8 µg/mL (≈ 13.6 µM). For the same compound, the “selectivity index (EC50/MIC)” value (S. aureus strain WIS; RBC EC50 / MIC, S. aureus strain WIS) was “(20)”, the MIC (S. aureus strain WIS; Staphylococcus aureus, read-out: Antimicrobial activity (MIC)) was 8 µg/mL (≈ 13.6 µM) and the “selectivity index (EC50/MIC)” value (S. aureus strain 85/2082; RBC EC50 / MIC, S. aureus strain 85/2082) was “(40)”. For the same compound, the MIC (S. aureus strain 85/2082; Staphylococcus aureus, 85/2082, read-out: Antimicrobial activity (MIC)) was 4 µg/mL (≈ 6.82 µM), the “selectivity index (EC50/MIC)” value (S. aureus N315; RBC EC50 / MIC, S. aureus N315) was “(20)” and the MIC (S. aureus N315; Staphylococcus aureus, N315, read-out: Antimicrobial activity (MIC)) was 8 µg/mL (≈ 13.6 µM). The MIC (P. aeruginosa K44-24; Pseudomonas aeruginosa, K4424, read-out: Antimicrobial activity (MIC)) was 32 µg/mL (≈ 54.5 µM), the “selectivity index (EC50/MIC)” value (P. aeruginosa K44-24; RBC EC50 / MIC) was “(5)” and the MIC (P. aeruginosa 50692520; [7]) was 16 µg/mL (≈ 27.3 µM). For the same compound, the “selectivity index (EC50/MIC)” value (P. aeruginosa 50692520; RBC EC50 / MIC) was “(10)”, the MIC (P. aeruginosa K34-73; Pseudomonas aeruginosa, K3473, read-out: Antimicrobial activity (MIC)) was 32 µg/mL (≈ 54.5 µM) and the “selectivity index (EC50/MIC)” value (P. aeruginosa K34-73; RBC EC50 / MIC, P. aeruginosa K34-73) was “(5)”. For the same compound, the MIC (P. aeruginosa K34-7; Pseudomonas aeruginosa, K347, read-out: Antimicrobial activity (MIC)) was 32 µg/mL (≈ 54.5 µM), the “selectivity index (EC50/MIC)” value (P. aeruginosa K34-7; RBC EC50 / MIC, P. aeruginosa K34-7) was “(5)” and the MIC (P. aeruginosa 50692172; [7]) was 16 µg/mL (≈ 27.3 µM). The “selectivity index (EC50/MIC)” value (P. aeruginosa 50692172; RBC EC50 / MIC) was “(10)”.
